Holding throughout (assay type): functional
Test [1] concerns CCRF-CEM. Briefly: In vitro inhibitory activity against the growth of CCRF-CEM human T lymphoblastic leukemia. Particulars: read-out: ID50 (the source's name).
The test system of test [2] is L1210. Briefly: In vitro Inhibitory activity against the growth of L1210 murine lymphocytic leukemia. The settings on record: Mus musculus, read-out: ID50 (the source's name).
For test [3], the species on record is Homo sapiens. Briefly: In vitro Inhibitory activity against the growth of WIL-2 human B lymphoblastic leukemia.

Results on one compound are retold here after ChEMBL document CHEMBL1124178, “Nucleosides of 1,4-thiazin-3-one and derivatives as tetrahedral intermediate analogues of enzymes in pyrimidine nucleoside metabolism” (J Med Chem, 1988).

As to `CC1=CSCC(=O)N1`, the figures for the IC50 in test [1] and in test [2] were 35.5 µM and 3 µM, respectively. Moreover, the ID50 in test [3] was found to be 41.7 µM.
